The values below are quoted from earlier work in patent publication US12071414B2, “Apelin receptor agonists and methods of use thereof” (Sanford Burnham Prebys Medical Discovery Institute, priority 2015, dated 2024).

Broadly, the EC50 is the concentration that produces a half-maximal response.

For one data set, the system named is heart. The note with it: read-out: EC50 of positive inotropic effect; in humans; cited from earlier work.
A further data set concerns isolated rat heart. The following applies: read-out: EC50 of positive inotropic effect, in rats, infusion; cited from earlier work.

Take apelin-16: the EC50 was 0.04 to 0.125 nM with heart and about 0.033 nM in the data set on isolated rat heart.
